SMILES strings stand for the structures.

For orientation: Kb means the affinity of an antagonist, worked out from how it opposes an agonist.

Type in all cases: cell-based
Experiment [1] addresses T1, human prostanoid FP receptor (Homo sapiens, UniProt P43088).
T1 construct: expressed in transfected cells
Nature of the experiment: FLIPR Ca2+ signaling antagonist assay, FP receptor stable cell line. Particulars: HEK-293 EBNA stable cell line; standard agonist 17-phenyl-PGF2α; NA = inactive (no antagonism or Kb 10,000 nM); PAg, Ag not defined. As to the method: (§1) The above compounds were tested for PG antagonist activity as follows using human recombinant prostanoid receptor (DP1, EP1-4, FP, IP and TP) stable cell lines:
(§2) In order to measure the response of Gs and Gi coupled prostanoid receptors as a Ca^2+ signal, chimeric G protein cDNAs were used. Stable cell lines over-expressing human prostanoid DP1, EP1-4, FP, IP, and TP receptors were established as follows:
(§3) Briefly, human prostanoid DP1, EP2, and EP4 receptor cDNAs were co-transfected with chimeric Gqs cDNA containing a haemagglutanin (HA) epitope; human prostanoid EP3 receptors were co-transfected with chimeric Gqi-HA; human EP1, FP, IP, and TP receptor cDNAs were expressed with no exogenous G-proteins. Gqs and Gqi chimeric cDNAs (Molecular Devices, Sunnyvale, Calif., U.S.A.), as well as cDNAs of prostanoid receptors, were cloned into a pCEP4 vector with a hygromycin B selection marker. Transfection into HEK-293 EBNA (Epstein-Barr virus nuclear antigen) cells was achieved by the FuGENE 6 transfection Reagent (Roche Applied Science, Indianapolis, Ind., USA). Stable transfectants were selected according to hygromycin resistance. Because Gqs and Gqi contained an HA epitope, G-protein expression was detected by Western blotting analysis using anti-mouse HA monoclonal antibody and horseradish peroxidase (HRP)-conjugated secondary antibody, while functional expression of prostanoid receptors was detected by FLIPR screening (Matias et al., 2004). These stable cell lines were validated using previously published antagonists at 10 μM against serial dilutions of standard agonists by FLIPR functional assays for Ca^2+ Signaling (as described below).
(§4) Ca^2+ signaling studies were performed using a FLIPR TETRA system (Molecular Devices, Sunnyvale, Calif., USA) in the 384-format. This is a high-throughput instrument for cell-based assays to monitor Ca^2+ signaling associated with GPCRs and ion channels. Cells were seeded at a density of 5×10^4 cells/well in BioCoat poly-D-lysine coated, black wall, clear bottom 384-well plates (BD Biosciences, Franklin lakes, NJ, USA) and allowed to attach overnight in an incubator at 37° C. The cells were then washed twice with HBSS-HEPES buffer (Hanks' balanced salt solution without bicarbonate and phenol red, 20 mM HEPES, pH 7.4) using an ELx405 Select CW Microplate Washer (BioTek, Winooski, Vt., USA). After 60 min of dye-loading in the dark using the Ca^2+-sensitive dye Fluo-4AM (Invitrogen, Carlsbad, Calif., USA), at a final concentration of 2×10^−6M, the plates were washed 4 times with HBSS-HEPES buffer to remove excess dye and leaving 50 μl of buffer in each well. The plates were then placed in the FLIPR TETRA instrument and allowed to equilibrate at 37° C. AGN-211377 was added in a 25 μl volume to each well to give final concentrations of 0.1 μM, 0.3 μM, 1 μM, 3 μM, 10 μM, and 30 μM; or 0.067 μM, 0.1 μM, 0.2 μM, 0.3 μM, 0.67 μM, and 1 μM for cells over-expressing TP receptors. After 4.5 minutes, a 7-point serial dilution of the standard agonist for the corresponding receptor, in a 25 μl volume was injected at the final concentrations from 10^−11M to 10^−5M in 10-fold serial dilution increments for cells expressing human recombinant DP1, EP1, EP2, EP3, EP4, FP, and IP receptors. The dose range for the standard agonist for human recombinant TP receptors was from 10^−12 M to 10^−6 M. HBSS-HEPES buffer was used as the negative control for the standard agonists. Cells were excited with LED (light emitting diode) excitation at 470-495 nm and emission was measured through an emission filter at 515-575 nm. Assay plates were read for 3.5 minutes using the FLIPR^TETRA. The peak increase in fluorescence intensity was recorded for each well. On each plate, negative controls, dose response of positive controls, and co-treatments of antagonist-agonist for each dose were in triplicates.
(§5) Standard agonists were as follows: DP=BW 245C, EP1-EP4=PGE2, FP=17-phenyl-PGF2α, IP=Cicaprost, and TP=U-46619. […]

Experiment [2] addresses T2, human prostanoid DP1 receptor (Homo sapiens, UniProt Q13258).
T2 construct: expressed in transfected cells
T2 sequence (Q13258 1-359): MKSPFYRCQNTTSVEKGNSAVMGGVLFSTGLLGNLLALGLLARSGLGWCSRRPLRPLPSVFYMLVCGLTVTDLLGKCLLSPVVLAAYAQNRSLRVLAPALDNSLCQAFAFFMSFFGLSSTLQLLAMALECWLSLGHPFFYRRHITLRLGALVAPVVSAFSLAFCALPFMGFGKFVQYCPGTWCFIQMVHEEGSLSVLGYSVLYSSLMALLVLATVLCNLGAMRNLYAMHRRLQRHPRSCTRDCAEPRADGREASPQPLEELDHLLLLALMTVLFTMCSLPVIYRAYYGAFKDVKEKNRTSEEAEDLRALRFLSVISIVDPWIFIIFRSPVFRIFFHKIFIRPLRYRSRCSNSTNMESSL
Briefly: FLIPR Ca2+ signaling antagonist assay, DP1 receptor stable cell line. Conditions: HEK-293 EBNA stable cell line; standard agonist BW 245C; NA = inactive (no antagonism or Kb 10,000 nM); PAg, Ag not defined. As to the method:
as §1, §2, §3, §4, §5

The target of experiment [3] is T3, human prostanoid EP1 receptor (Homo sapiens, UniProt P34995).
T3 construct: expressed in transfected cells
T3 sequence (P34995 1-402): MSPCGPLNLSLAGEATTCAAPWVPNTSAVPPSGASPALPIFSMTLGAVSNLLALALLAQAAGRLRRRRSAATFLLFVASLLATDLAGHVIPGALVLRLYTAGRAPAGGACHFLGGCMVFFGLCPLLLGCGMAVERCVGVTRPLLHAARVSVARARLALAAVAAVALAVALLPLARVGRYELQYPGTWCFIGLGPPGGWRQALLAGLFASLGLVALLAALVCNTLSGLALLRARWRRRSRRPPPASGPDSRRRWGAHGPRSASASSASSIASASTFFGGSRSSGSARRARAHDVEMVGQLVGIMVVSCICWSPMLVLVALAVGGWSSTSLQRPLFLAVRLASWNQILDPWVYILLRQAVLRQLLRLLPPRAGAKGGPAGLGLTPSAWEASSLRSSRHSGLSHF
Nature of the experiment: FLIPR Ca2+ signaling antagonist assay, EP1 receptor stable cell line. Particulars: HEK-293 EBNA stable cell line; standard agonist PGE2; NA = inactive (no antagonism or Kb 10,000 nM); PAg, Ag not defined. The procedure: as §1, §2, §3, §4, §5

The target of experiment [4] is T4, human prostanoid EP4 receptor (Homo sapiens, UniProt P35408).
T4 construct: expressed in transfected cells
Briefly: FLIPR Ca2+ signaling antagonist assay, EP4 receptor stable cell line. Particulars: HEK-293 EBNA stable cell line; standard agonist PGE2; NA = inactive (no antagonism or Kb 10,000 nM); PAg, Ag not defined. The procedure:
as §1, §2, §3, §4, §5

Experiment [5] deals with T5, human prostanoid IP receptor (Homo sapiens, UniProt P43119).
T5 construct: expressed in transfected cells
Briefly: FLIPR Ca2+ signaling antagonist assay, IP receptor stable cell line. Particulars: HEK-293 EBNA stable cell line; standard agonist Cicaprost; NA = inactive (no antagonism or Kb 10,000 nM); PAg, Ag not defined. The procedure:
as §1, §2, §3, §4, §5

Experiment [6] concerns the target T6, human prostanoid TP receptor (Homo sapiens, UniProt P21731).
T6 construct: expressed in transfected cells
T6 sequence (P21731 1-343): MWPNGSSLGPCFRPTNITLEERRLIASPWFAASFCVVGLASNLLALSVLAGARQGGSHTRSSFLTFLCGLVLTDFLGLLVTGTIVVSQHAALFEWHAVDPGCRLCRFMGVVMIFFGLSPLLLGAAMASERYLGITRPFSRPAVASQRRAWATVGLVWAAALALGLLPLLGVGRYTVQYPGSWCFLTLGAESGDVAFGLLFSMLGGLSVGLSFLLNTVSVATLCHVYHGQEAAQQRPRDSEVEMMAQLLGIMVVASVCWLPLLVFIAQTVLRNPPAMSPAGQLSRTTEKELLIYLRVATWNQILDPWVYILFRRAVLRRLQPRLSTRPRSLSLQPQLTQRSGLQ
Briefly: FLIPR Ca2+ signaling antagonist assay, TP receptor stable cell line. Particulars: HEK-293 EBNA stable cell line; standard agonist U-46619; NA = inactive (no antagonism or Kb 10,000 nM); PAg, Ag not defined. As to the method:
as §1, §2, §3, §4, §5

T4 sequence (P35408 whole entry): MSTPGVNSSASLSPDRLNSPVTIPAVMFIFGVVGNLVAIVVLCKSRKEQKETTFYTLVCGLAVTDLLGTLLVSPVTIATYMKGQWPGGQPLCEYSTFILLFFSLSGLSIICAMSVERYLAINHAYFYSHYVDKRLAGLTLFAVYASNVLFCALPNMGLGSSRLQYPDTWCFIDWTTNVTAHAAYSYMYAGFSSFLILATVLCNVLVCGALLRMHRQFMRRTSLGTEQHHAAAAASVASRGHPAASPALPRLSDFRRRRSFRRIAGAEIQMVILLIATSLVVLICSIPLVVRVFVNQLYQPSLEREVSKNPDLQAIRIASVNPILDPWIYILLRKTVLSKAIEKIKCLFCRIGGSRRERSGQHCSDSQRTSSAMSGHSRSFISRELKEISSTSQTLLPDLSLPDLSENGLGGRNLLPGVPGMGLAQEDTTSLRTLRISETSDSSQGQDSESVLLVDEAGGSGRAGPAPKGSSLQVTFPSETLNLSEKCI
T5 sequence (P43119 whole entry): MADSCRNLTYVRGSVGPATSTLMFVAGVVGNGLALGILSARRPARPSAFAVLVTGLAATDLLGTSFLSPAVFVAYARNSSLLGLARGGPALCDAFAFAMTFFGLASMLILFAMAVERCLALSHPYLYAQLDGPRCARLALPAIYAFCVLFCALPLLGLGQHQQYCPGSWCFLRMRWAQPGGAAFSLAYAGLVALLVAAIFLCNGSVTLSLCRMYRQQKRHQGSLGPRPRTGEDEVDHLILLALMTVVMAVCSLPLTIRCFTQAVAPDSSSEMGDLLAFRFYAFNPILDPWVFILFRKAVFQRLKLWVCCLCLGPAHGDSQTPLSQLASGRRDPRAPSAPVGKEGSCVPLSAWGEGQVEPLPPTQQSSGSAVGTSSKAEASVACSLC
T1 sequence (P43088 whole entry): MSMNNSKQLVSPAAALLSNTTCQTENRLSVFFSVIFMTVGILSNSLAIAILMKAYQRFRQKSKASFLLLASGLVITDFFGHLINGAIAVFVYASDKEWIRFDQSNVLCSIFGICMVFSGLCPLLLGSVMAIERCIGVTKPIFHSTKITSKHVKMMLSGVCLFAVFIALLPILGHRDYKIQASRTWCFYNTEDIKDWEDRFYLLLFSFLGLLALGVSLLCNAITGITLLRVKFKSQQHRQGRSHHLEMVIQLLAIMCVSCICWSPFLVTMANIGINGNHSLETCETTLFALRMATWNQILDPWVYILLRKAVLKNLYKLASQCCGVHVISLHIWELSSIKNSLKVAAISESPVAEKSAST

`CCC(CC)COc1ccc(C(F)(F)F)cc1Cn1nc(CCC(=O)O)cc1C` [Example 46, 3-[1-[2-(2-Ethyl-butoxy)-5-trifluoromethyl-benzyl]-5-methyl-1H-pyrazol-3-yl]-propionic acid]: the Kb was determined as 240 nM in experiment [1]; 700 nM in experiment [2]; 40 nM in experiment [3]; 170 nM in experiment [4]; 2100 nM in experiment [5]; 3 nM in experiment [6].
On to `CCC(CC)COc1ccc(C(C)(C)C)cc1Cn1nc(CCC(=O)O)cc1C` [Example 49, 3-[1-[2-(2-Ethyl-butoxy)-5-tert-butyl-benzyl]-5-methyl-1H-pyrazol-3-yl]-propionic acid], for which the Kb is 1700 nM in experiment [1]; 270 nM in experiment [2]; 40 nM in experiment [3]; 1800 nM in experiment [4]; 2500 nM in experiment [5]; 24 nM in experiment [6].
Consider `COc1ccc(OCC2CCCC2)c(Cn2nc(CCC(=O)O)cc2C)c1` [Example 53, 3-[1-(2-Cyclopentylmethoxy-5-methoxy-benzyl)-5-methyl-1H-pyrazol-3-yl]-propionic acid], for which the Kb in experiment [1] is 1900 nM; in experiment [2], 1500 nM; in experiment [3], 600 nM; in experiment [4] it was 1890 nM; in experiment [5] it was 6900 nM; in experiment [6] it was 700 nM.
For `CCC(CC)COc1ccc(Br)cc1Cn1ccc(CCC(=O)O)n1` [Example 59, 3-{1-[5-Bromo-2-(2-ethyl-butoxy)-benzyl]-1H-pyrazol-3-yl}-propionic acid], the Kb in experiment [1] is 1200 nM; in experiment [2], 300 nM; in experiment [3], 160 nM; in experiment [4], 100 nM; in experiment [5] it was 2700 nM; in experiment [6], 1 nM.
As for `CCC(CC)COc1ccc(C#N)cc1Cn1nc(CCC(=O)O)cc1C` [Example 60, 3-{1-[5-Cyano-2-(2-ethyl-butoxy)-benzyl]-5-methyl-1H-pyrazol-3-yl}-propionic acid], the Kb in experiment [1] worked out at 1400 nM; in experiment [2], 4400 nM; in experiment [3], 2100 nM; in experiment [4], 2400 nM; in experiment [5], 5400 nM; in experiment [6] it was 120 nM.
`CCC(CC)COc1ccc(-c2ccccc2)cc1Cn1nc(CCC(=O)O)cc1C` [Example 63, 3-{1-[4-(2-Ethyl-butoxy)-biphenyl-3-ylmethyl]-5-methyl-1H-pyrazol-3-yl}-propionic acid]: the Kb in experiment [1] worked out at 60 nM; in experiment [2], 170 nM; in experiment [3], 700 nM; in experiment [4] it was 4000 nM; in experiment [5], 2200 nM. The “TP (FLIPR) Kb” value in experiment [6] is listed as “PAg”.
Regarding `C#Cc1ccc(OCC(CC)CC)c(Cn2nc(CCC(=O)O)cc2C)c1` [Example 64, 3-{1-[5-Ethynyl-2-(2-ethyl-butoxy)-benzyl]-5-methyl-1H-pyrazol-3-yl}-propionic acid], the Kb in experiment [1] is 50 nM; in experiment [2], 800 nM; in experiment [3] it was 270 nM; in experiment [4], 500 nM; in experiment [5] it was 2000 nM; in experiment [6] it was 9 nM.
Take `CCC(CC)COc1ccc(C)cc1Cn1nc(CCC(=O)O)cc1C` [Example 65, 3-{1-[2-(2-Ethyl-butoxy)-5-methyl-benzyl]-5-methyl-1H-pyrazol-3-yl}-propionic acid]: the Kb is 1300 nM in experiment [1]; 550 nM in experiment [2]; 150 nM in experiment [3]; 100 nM in experiment [4]; 2300 nM in experiment [5]; 10 nM in experiment [6].
For the compound `CCc1ccc(OCC(CC)CC)c(Cn2nc(CCC(=O)O)cc2C)c1` [Example 66, 3-{1-[5-Ethyl-2-(2-ethyl-butoxy)-benzyl]-5-methyl-1H-pyrazol-3-yl}-propionic acid], the Kb was 500 nM in experiment [1]; 260 nM in experiment [2]; 100 nM in experiment [3]; 900 nM in experiment [4]; 1500 nM in experiment [5]; 8 nM in experiment [6].
For `CCC(CC)COc1ccc(Br)cc1Cn1nc(CC(C)C(=O)O)cc1C` (stereo not drawn) [Example 67, 3-{1-[5-Bromo-2-(2-ethyl-butoxy)-benzyl]-5-methyl-1H-pyrazol-3-yl}-2-methyl-propionic acid], the Kb turned out to be 140 nM in experiment [1]; 400 nM in experiment [2]; 10 nM in experiment [3]; 70 nM in experiment [4]; 1500 nM in experiment [5]; 20 nM in experiment [6].
As to `Cc1cc(CC(C)(C)C(=O)O)nn1Cc1cc(Cl)ccc1OCC1CCCC1` [Example 72, 3-{1-[5-Chloro-2-(2-cyclopentylmethoxy)-benzyl]-5-methyl-1H-pyrazol-3-yl}-2,2-dimethyl-propionic acid], the Kb in experiment [1] turned out to be 450 nM; in experiment [2] it was 560 nM; in experiment [3], 70 nM; in experiment [4] it was 180 nM; in experiment [5], 1700 nM; in experiment [6], 40 nM.

For the origin of these results see patent publication US9394284B2, “Compounds act at multiple prostaglandin receptors giving a general anti-inflammatory response” (Allergan, Inc., priority 2010, dated 2016).
